Reference: patent US9968582B2, “Use of a benzoate containing composition in urea cycle disorders and neurodegenerative disorders” (Rush University Medical Center, priority 2014, dated 2018)

What was measured:
[1] = test system: dopamine (DA) in the striata; assay: MPTP mouse model of PD, HPLC of striatal dopamine; type: in vivo, mice; settings: MPTP intoxication compared to saline-injected control mice, 7 days; FIG. 10
Protocol: (§1) Six- to eight-week old C57BL/6 mice were purchased from Harlan (Indianapolis, Ind.). For acute MPTP intoxication, mice received four intraperitoneal (i.p.) injections of MPTP-HCl (18 mg/kg of free base; Sigma Chemical Co., St. Louis, Mo.) in saline at 2-h intervals. Control animals received only saline.
(§2) GTB was mixed in 0.5% methylcellulose (MC) and from 3 h after the last injection of MPTP, mice were gavaged 100 μL GTB-mixed MC once daily using gavage needle. Therefore, control MPTP mice received only MC as vehicle.
Striatal level of dopamine was quantified in Complete Stand-Alone HPLC-ECD System EiCOMHTEC-500 (JM Science Inc., Grand Island, N.Y.). Briefly, mice were sacrificed by cervical dislocation after 7 days of MPTP intoxication and their striata were collected and immediately frozen in dry ice and stored at −80° C. until analysis. On the day of the analysis, tissues were sonicated in 0.2M perchloric acid containing isoproterenol and resulting homogenates were centrifuged at 20,000×g for 15 min at 4 C. After pH adjustment and filtration, 10 μl of supernatant was injected onto an Eicompak SC-3ODS column (Complete Stand-Alone HPLC-ECD System EiCOMHTEC-500 from JM Science Inc., Grand Island, N.Y.) and analyzed following the manufacturer's protocol.
Next, to determine whether GTB protects against biochemical deficits caused by MPTP, the inventor quantified levels of dopamine (DA) in the striata 7 days after the MPTP treatment. As evident from FIG. 10, MPTP intoxication led to about 75% decrease in striatal DA compared to striata of saline-injected control mice.

[2] = test system: Tyrosine hydroxylase (TH); assay: MPTP mouse model of PD, Western blot of nigral TH; type: in vivo, mice; settings: MPTP intoxication compared with saline-injected controls; FIG. 9A-B
Protocol: as §1, §2
(§3) Immunoblot analysis for DJ-1 and TH was carried out. Briefly, cell homogenates were electrophoresed, proteins were transferred onto a nitrocellulose membrane, and bands were visualized with an Odyssey infrared scanner after immunolabeling with respective primary antibodies followed by infra-red fluorophore-tagged secondary antibody (Invitrogen).
Tyrosine hydroxylase (TH), the key enzyme responsible for the production of dopamine, is present in dopaminergic neurons. MPTP-intoxication led to approximately 60% loss of nigral TH (FIG. 9A-B) compared with saline-injected controls.

DJ-1 [3] = assay: MPTP mouse model of PD, Western blot of DJ-1 in the nigra; type: in vivo, mice; settings: MPTP intoxication; FIG. 9A-B
Protocol: as §1, §2, §3
Upregulation and/or maintenance of PD-related beneficial protein such as DJ-1 in the nigra during neurodegenerative insults may have therapeutic efficacy in PD.

BDNF = settings: brain cells; cited from earlier work
[4] = test system: disease process of multiple sclerosis (MS) in mice; settings: cited from earlier work
[5] = in vivo; cited from earlier work
NT-3 = settings: brain cells; cited from earlier work
DJ-1 [6] = settings: astrocytes and neurons (cited title); cited from earlier work

| SMILES | decrease in striatal DA [1] | loss of nigral TH [2] | level of DJ-1 in the nigra (DJ-1 [3]) | production of BDNF (BDNF) | disease process of multiple sclerosis (MS) [4] | metabolism and excretion [5] | production of NT-3 (NT-3) | DJ-1 protein (DJ-1 [6]) |
| --- | --- | --- | --- | --- | --- | --- | --- | --- |
| CN1CC=C(c2ccccc2)CC1 [MPTP, reference compound] | about 75% | approximately 60% | decreased the level of DJ-1 | – | – | – | – | – |
| O=C([O-])c1ccccc1.[Na+] [sodium benzoate] | – | – | – | increases the production | suppresses the disease process | quickly metabolized and excreted from the body | increases the production | up-regulates |
